Measurements: patent publication US20060264418A1, “6-(2,2,2-Trifluoroethylamino-7-chloro-2,3,4,5-tetrahydro-1h-benzo[d] azephine as a 5-ht2c receptor agonist” (priority 2003, published 2006)

Legend:
[1] = biological target: alpha 1 adrenergic receptor; experiment: Radioligand receptor binding assay, alpha 1 adrenergic
[2] = test system: male Long-Evans rats; experiment: Calorimetric acute feeding assay; format: in vivo, rat; conditions: oral dose
Source text: (§1) Animals: Obtain male Long-Evans rats (Harlan Sprague-Dawley, Indianapolis, Ind.) that are approximately one hundred-days old and have been maintained on a calorie rich diet since weaning (TD 95217, 40% calories from fat; Teklad, Madison, Wis.). House the rats individually with a 12 hr.:12 hr. light:dark cycle (lights on from about 22:00 hr. to about 10:00 hr.) and maintain rats on the same diet (TD 95217) with free access to water, for about 1-2 weeks to acclimate the rats to the environment. Dose rats orally with vehicle (10% acacia with 0.15% saccharin in water) once daily for at least 1 day (typically 1-2 days) to acclimate the rats to the procedures. Randomize the rats into groups so each group has similar mean body weights.
Calorimetric Acute Feeding Assay: At approximately 8:00 hr. on the day of assay, weigh each rat and transfer to individual chambers of an open circuit calorimetry system (Oxymax, Columbus Instruments International Corporation; Columbus, Ohio), with free access to food (pre-weighed) and water, and begin measuring VO2 and VCO2. At approximately 10:00 hr., dose rats orally with vehicle or test compound, return them to their calorimetry chambers, and continue measuring VO2 and VCO2 at regular time intervals (approximately hourly). At approximately 8:00 hr. the following day, measure rat body weight and the remaining food, assuming the difference in weight of food is equal to the mass of food consumed. Calculate the 24 hr. energy expenditure (EE) and respiratory quotient (RQ) essentially as described in Chen, Y. and Heiman, M. L., Regulatory Peptide, 92:113-119 (2000). […]
Calculate EE as the product of calorific value (CV) and VO2 per body weight (kg); where CV=3.815+1.232*RQ, and RQ is the ratio of CO2 produced (VCO2) to O2 consumed (VO2). Caloric intake is calculated as (mass of 24 hr. food intake in grams)×(physiological fuel value of the diet in kilocalorie/g) per kg of body weight.

[3] = test system: male NIH Swiss mice; experiment: Nestlet shredding; format: in vivo, mouse; conditions: 30 min.
Source text: Mice naturally will construct nests of material available in their living environment. Since this behavior is obsessive in nature, it has been used to model OCD (Mia Li, Denise Morrow and Jeffrey M. Witkin, “Decreases in nestlet shredding of mice by serotonin uptake inhibitors: comparison with marble burying”, Psychopharmacology, submitted Jul. 14, 2003). House experimentally-naïve male, NIH Swiss mice (Harlan Sprague-Dawley, Indianapolis, Ind.) weighing between 28-35 g in groups of 12 for at least three days prior to testing in a vivarium with a 12 hr. light/dark cycle. Conduct experiments during the light cycle in an experimental room with normal overhead fluorescent lighting. Dose mice with vehicle or test compound and after a specified pretreatment interval (generally 30 min.), place the mice individually in a 17×28×12 cm high plastic tub with about 5 mm sawdust shavings on the floor along with a pre-weighed multi-ply gauze pad (51 mm square). After 30 min., weigh the remainder of the gauze pad not removed by the mouse. Determine the weight of the gauze used for nestlet construction by subtraction. Compare the results for test compound treated mice to the results for vehicle control treated mice with Dunnett's test.
Clinically effective OCD treatment standard compounds suppress nestlet shredding at doses that are devoid of motor-impairing effects as measured by the rotorod test. […]

[4] = test system: male NIH Swiss mice; experiment: Marble burying assay (with rotorod); format: in vivo, mouse
Source text: Marble burying in mice has been used to model anxiety disorders including obsessive-compulsive disorders (OCD) due to ethological study of the behavior (e.g. Gyertyan I. “Analysis of the marble burying response: Marbles serve to measure digging rather than evoke burying”, Behavioural Pharmacology 6: 24-31, (1995)) and due to the pharmacological effects of clinical standards (c.f., Njung′E K. Handley S L. “Evaluation of marble-burying behavior as a model of anxiety”, Pharmacology, Biochemistry & Behavior. 38: 63-67, (1991)); Borsini F., Podhorna J., and Marazziti, D. “Do animal models of anxiety predict anxiolytic effects of antidepressants?”, Psychopharmacology 163: 121-141, (2002)). Thus, drugs used in the treatment of generalized anxiety in humans (e.g. benzodiazepines) as well as compounds used to treat OCD (e.g. SSRIs like fluoxetine) decrease burying.
House experimentally-naïve male, NIH Swiss mice (Harlan Sprague-Dawley, Indianapolis, Ind.) weighing between 28-35 g in groups of 12 for at least three days prior to testing in a vivarium with 12 hr. light and dark cycles. Conduct experiments during the light cycle in a dimly lit experimental testing room. Dose mice with vehicle or compound and, after a specified pretreatment interval (generally 30 min.), place each mouse individually on a rotorod (Ugo Basile 7650) operating at a speed of 6 revolutions/min. and observe for falling. After 2 min. on the rotorod, place the mice individually in a 17×28×12 cm high plastic tub with 5 mm sawdust shavings on the floor that are covered with 20 blue marbles (1.5 cm diameter) placed in the center. After 30 min., count the number of marbles buried (⅔ covered with sawdust). Assess the compound's effect on marble burying with Dunnett's test and the effect on rotorod performance by Fisher's exact test.
Clinically effective standard compounds suppress marble burying at doses that are devoid of motor-impairing effects as measured on the rotorod. […]

[5] = test system: male Long-Evans rats; experiment: Acute feeding assay with a selective 5-HT2C receptor antagonist; format: in vivo, rat; conditions: antagonist 3 mg/Kg subcutaneous about 15 min. before oral test compound
Source text: as §1
Acute Feeding Assay with a selective 5-HT2C receptor antagonist: The above calorimetric acute feeding assay is conducted with the following modifications. Open circuit calorimetry systems are not used and only the 24 hr. periodic food intake and body weight are measured. […]

FC(F)(F)CNc1c(Cl)ccc2c1CCNCC2.O=C(O)CCC(=O)O [Example 2, 7-Chloro-6-(2,2,2-trifluoroethylamino)-2,3,4,5-tetrahydro-1H-benzo[d]azepine Succinic Acid Salt]
IC50 [1]: > 3000 nM | 24 hr. food intake ([2]; acute assays, rats on calorie rich diet): significantly reduce 24 hr. food intake | respiratory quotient (RQ) ([2]; acute, 24 hr. calorimetry): dose-dependently reduced RQ | energy expenditure during the light photoperiod ([2]; acute, indicative of resting metabolic rate): without significantly changing | nestlet shredding (relative to motor effects, rotorod test) [3]: suppress nestlet shredding at doses that were devoid of motor-impairing effects | reduction of burying behavior with co-administration of the 5-HT2C antagonist [4]: blocked | marble burying behavior (relative to rotorod performance) ([4]; 30 min. burying session): reduce burying behavior | effect on 24 hr. food intake after pre-administration of the 5-HT2C receptor antagonist [5]: blocked
